Results reported in PubChem BioAssay (NCI).
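Exposure lasted 48 hours, with cells grown in 96-well plates and compounds tested at five concentrations. TGI: total growth inhibition.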

Assays:
Assay in all cases: inhibition of tumour cell growth, NCI panel, 48 h
KM20L2 colon = tested on: KM20L2 colon
SW-620 colon = tested on: SW-620 colon
UACC-257 melanoma = tested on: UACC-257 melanoma
UACC-62 melanoma = tested on: UACC-62 melanoma
TK-10 renal = tested on: TK-10 renal
ACHN renal = tested on: ACHN renal
SN12C renal = tested on: SN12C renal
NCI-H522 lung = tested on: NCI-H522 lung
CAKI-1 renal = tested on: CAKI-1 renal
KM12 colon = tested on: KM12 colon
LXFL 529 NSCLC = tested on: LXFL 529 NSCLC
NCI-H226 lung = tested on: NCI-H226 lung
LOX IMVI melanoma = tested on: LOX IMVI melanoma
NCI-H23 lung = tested on: NCI-H23 lung
HCT-15 colon = tested on: HCT-15 colon
HCC-2998 colon = tested on: HCC-2998 colon
EKVX NSCLC = tested on: EKVX NSCLC
RXF 393 renal = tested on: RXF 393 renal
K-562 leukemia = tested on: K-562 leukemia
OVCAR-4 ovarian = tested on: OVCAR-4 ovarian
UO-31 renal = tested on: UO-31 renal
A549 NSCLC = tested on: A549 NSCLC
SNB-19 CNS = tested on: SNB-19 CNS
SF-539 CNS = tested on: SF-539 CNS
XF 498 CNS = tested on: XF 498 CNS
IGROV1 ovarian = tested on: IGROV1 ovarian
HOP-18 NSCLC = tested on: HOP-18 NSCLC
MOLT-4 leukemia = tested on: MOLT-4 leukemia
U251 CNS = tested on: U251 CNS
SF-268 CNS = tested on: SF-268 CNS
SNB-78 CNS = tested on: SNB-78 CNS
786-0 renal = tested on: 786-0 renal
A498 renal = tested on: A498 renal
OVCAR-5 ovarian = tested on: OVCAR-5 ovarian
RPMI-8226 leukemia = tested on: RPMI-8226 leukemia
SK-MEL-2 melanoma = tested on: SK-MEL-2 melanoma
COLO 205 colon = tested on: COLO 205 colon
NCI-H460 lung = tested on: NCI-H460 lung
M14 melanoma = tested on: M14 melanoma
SK-MEL-28 melanoma = tested on: SK-MEL-28 melanoma
DMS 114 small cell lung = tested on: DMS 114 small cell lung
MALME-3M melanoma = tested on: MALME-3M melanoma
SK-MEL-5 melanoma = tested on: SK-MEL-5 melanoma
SNB-75 CNS = tested on: SNB-75 CNS
CCRF-CEM leukemia = tested on: CCRF-CEM leukemia
HL-60(TB) leukemia = tested on: HL-60(TB) leukemia
HCT-116 colon = tested on: HCT-116 colon
DLD-1 colon = tested on: DLD-1 colon
M19-MEL melanoma = tested on: M19-MEL melanoma
SK-OV-3 ovarian = tested on: SK-OV-3 ovarian
OVCAR-3 ovarian = tested on: OVCAR-3 ovarian
HOP-92 NSCLC = tested on: HOP-92 NSCLC
OVCAR-8 ovarian = tested on: OVCAR-8 ovarian
DMS 273 small cell lung = tested on: DMS 273 small cell lung
SF-295 CNS = tested on: SF-295 CNS
HOP-62 NSCLC = tested on: HOP-62 NSCLC

Measured: TGI

Cc1cccc(-c2nnc3s/c(=C\c4ccc5c(c4)OCO5)c(=O)n23)c1
> 100 µM: all assays above
